Where a name gives a salt, the structure may show the parent alone. Read-outs that look alike come from different tables or passages of the source.
Molecular target: TPK enzyme (Homo sapiens (Human), UniProt Q9H3S4)
Assay: TPK enzyme activity test
Assay type: biochemical
Conditions: for Emax: calculated with the effect of DMSO on TPK enzyme activity as 100%; for EC50: promoting effect on TPK enzyme activity

Sequence of TPK enzyme (Q9H3S4 whole entry): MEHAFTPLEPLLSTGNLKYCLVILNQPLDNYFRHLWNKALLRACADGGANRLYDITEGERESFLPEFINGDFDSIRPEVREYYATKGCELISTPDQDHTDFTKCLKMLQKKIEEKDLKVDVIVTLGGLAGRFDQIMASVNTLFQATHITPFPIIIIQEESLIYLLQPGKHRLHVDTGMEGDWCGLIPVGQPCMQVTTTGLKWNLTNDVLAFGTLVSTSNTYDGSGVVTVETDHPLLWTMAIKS

| Emax (read-out: Emax) [%] | EC50 [nM] | Emax [%] | SMILES |
| --- | --- | --- | --- |
| 204 | 490 |  | O=C(O)CCC(=O)OCCN1CCN(CCC(=O)N2c3ccccc3Sc3ccc(C(F)(F)F)cc32)CC1 [Compound 199] |
| 121 |  |  | Cc1cccc2c1[nH]c1c(=O)n(CCC(=O)N3CCN(c4cccc(C(F)(F)F)c4)CC3)cnc12 [Compound 23, 6-methyl-3-(3-oxo-3-(4-(3-(trifluoromethyl)phenyl)piperazin-1-yl)propyl)-3,5-dihydro-4H-pyrimido[5,4-b]indol-4-one] |
| 144 | 360 |  | Cc1ccc2[nH]c3c(=O)n(CCC(=O)N4CCN(c5cc(C(F)(F)F)cc(C(F)(F)F)c5)CC4)cnc3c2c1 [Compound 16, 3-(3-(4-(3,5-bis(trifluoromethyl)phenyl)piperazin-1-yl)-3-oxopropyl)-8-methyl-3,5-dihydro-4H-pyrimido[5,4-b]indol-4-one] |
| 137 |  |  | COc1cccc(N2CCN(C(=O)CCn3cnc4c([nH]c5ccc(C)cc54)c3=O)CC2)c1 [Compound 43] |
| 139 |  |  | O=C1CCCCN1CCCN1CCSc2ccc(C(F)(F)F)cc21 [Compound 194, 1-(3-(6-(trifluoromethyl)-2,3-dihydro-4H-benzo[b][1,4]thiazin-4-yl)propyl)piperidin-2-one] |
| 123 |  |  | COc1cccc(CNC(=O)CCn2cnc3c([nH]c4ccc(C)cc43)c2=O)c1 [Compound 81] |
| 151 | 1210 |  | Cc1ccc(N2CCN(C(=O)CCn3cnc4c([nH]c5ccc(C)cc54)c3=O)CC2)c(C)c1 [Compound 31] |
| 193 |  |  | Cc1ccc2[nH]c3c(=O)n(CCC(=O)NCCNc4ccc5c(c4)CCCC5)cnc3c2c1 [Compound 131, 3-(8-methyl-4-oxo-4,5-dihydro-3H-pyrimido[5,4-b]indol-3-yl)-N-(2-((5,6,7,8-tetrahydronaphthalen-2-yl)amino)ethyl)propanamide] |
| 156 | 3960 |  | Cc1ccc2[nH]c3c(=O)n(CCC(=O)N4CCN(c5cc(Cl)ccc5C)CC4)cnc3c2c1 [Compound 42] |
| 204 | 4070 |  | O=C(N[C@@H](Cc1ccc(F)cc1)C(=O)O)OCC1c2ccccc2-c2ccccc21 [Compound 141] |
| 138 |  |  | Cc1ccc2[nH]c3c(=O)n(CCC(=O)NCc4cc(C(F)(F)F)cc(C(F)(F)F)c4)cnc3c2c1 [Compound 66, N-(3,5-bis(trifluoromethyl)benzyl)-3-(8-methyl-4-oxo-4,5-dihydro-3H-pyrimido[5,4-b]indol-3-yl)propanamide] |
| 160 | 7720 |  | O=C(CCn1cnc2c(sc3ccccc32)c1=O)N1CCC(O)(c2cccc(C(F)(F)F)c2)CC1 [Compound 147, 3-(3-(4-hydroxy-4-(3-(trifluoromethyl)phenyl)piperidin-1-yl)-3-oxopropyl)benzo[4,5]thieno[3,2-d]pyrimidin-4(3H)-one] |
| 162 | 1580 |  | O=C(CCn1cnc2c([nH]c3ccc(C(F)(F)F)cc32)c1=O)N1CCN(Cc2cccc(C(F)(F)F)c2)CC1 [Compound 53, 3-(3-oxo-3-(4-(3-(trifluoromethyl)benzyl)piperazin-1-yl)propyl)-8-(trifluoromethyl)-3,5-dihydro-4H-pyrimido[5,4-b]indol-4-one] |
| 187 |  |  | COc1ccc2c(c1)N1CCN(c3ccc(C)cc3)CC1C(C(=O)Nc1ccccc1)C2 (stereo not shown) [Compound 140] |
| 122 |  |  | Cc1cccc2[nH]c3c(=O)n(CCC(=O)NCc4cccc(C(F)(F)F)c4)cnc3c12 [Compound 77, 3-(9-methyl-4-oxo-4,5-dihydro-3H-pyrimido[5,4-b]indol-3-yl)-N-(3-(trifluoromethyl)benzyl)propanamide] |
|  | 1330 | 152.22 | Cc1ccc2c(c1)-c1ncn(CCCC(=O)N3CCCC(Cc4ccc(F)cc4)C3)c(=O)c1CC2 (stereo not shown) [Compound 223, 3-(4-(3-(4-fluorobenzyl)piperidin-1-yl)-4-oxobutyl)-9-methyl-5,6-dihydrobenzo[h]quinazolin-4(3H)-one] |
| 176 | 2660 |  | O=C1CCCCN1CCCN1c2ccccc2Sc2ccccc21 [Compound 186, 1-(3-(10H-phenothiazin-10-yl)propyl)piperidin-2-one] |
| 168 | 2.94 |  | O=C(CCN1c2ccccc2Sc2ccccc21)NCCN1CCOCC1 [Compound 200] |

| Emax (read-out: Emax) [%] | EC50 [nM] | Emax [%] | SMILES |
| --- | --- | --- | --- |
| 152 | 2440 |  | Cc1ccc2c(c1)[nH]c1c(=O)n(CCC(=O)N3CCN(c4cc(Cl)ccc4Cl)CC3)cnc12 [Compound 14, 3-(3-(4-(2,5-dichlorophenyl)piperazin-1-yl)-3-oxopropyl)-7-methyl-3,5-dihydro-4H-pyrimido[5,4-b]indol-4-one] |
| 159 |  |  | Cc1ccc2[nH]c3c(=O)n(CCC(=O)N4CCN(c5cccc(Br)c5)CC4)cnc3c2c1 [Compound 18, 3-(3-(4-(3-bromophenyl)piperazin-1-yl)-3-oxopropyl)-8-methyl-3,5-dihydro-4H-pyrimido[5,4-b]indol-4-one] |
| 191 | 1130 |  | O=C1CCCCN1CCCCCCN1c2ccccc2Sc2ccc(C(F)(F)F)cc21 [Compound 187, 1-(6-(2-(trifluoromethyl)-10H-phenothiazin-10-yl)hexyl)piperidin-2-one] |
| 205 |  |  | O=C(CCn1cnc2c([nH]c3ccc(Br)cc32)c1=O)N1CCN(c2cccc(C(F)(F)F)c2)CC1 [Compound 12, 8-bromo-3-(3-oxo-3-(4-(3-(trifluoromethyl)phenyl)piperazin-1-yl)propyl)-3,5-dihydro-4H-pyrimido[5,4-b]indol-4-one] |
| 166 | 2620 |  | Cc1ccc2[nH]c3c(=O)n(CCC(=O)N4CCN(c5cccc(N)c5)CC4)cnc3c2c1 [Compound 26, 3-(3-(4-(3-aminophenyl)piperazin-1-yl)-3-oxopropyl)-8-methyl-3,5-dihydro-4H-pyrimido[5,4-b]indol-4-one] |
| 126 |  |  | CC(=O)c1ccc(N2CCN(C(=O)CCn3cnc4c([nH]c5ccc(C)cc54)c3=O)CC2)cc1 [Compound 35] |
| 131 | 5600 |  | COC(=O)C1CCCCN1CCCN1c2ccccc2Sc2ccccc21 (stereo not shown) [Formate salt of 191, methyl 1-(3-(10H-phenothiazin-10-yl)propyl)piperidin-2-carboxylate] |
| 173 | 1130 |  | Cc1ccc2c(c1)-c1ncn(CCC(=O)N3CCN(c4cccc(C(F)(F)F)c4)CC3)c(=O)c1CC2 [Compound 215, 9-methyl-3-(3-oxo-3-(4-(3-(trifluoromethyl)phenyl)piperazin-1-yl)propyl)-5,6-dihydrobenzo[h]quinazolin-4(3H)-one] |
| 157 | 2490 |  | Cc1ccc2[nH]c3c(=O)n(CCC(=O)N4CCC(O)(c5cccc(C(F)(F)F)c5)CC4)cnc3c2c1 [Compound 165, 3-(3-(4-hydroxy-4-(3-(trifluoromethyl)phenyl)piperidin-1-yl)-3-oxopropyl)-8-methyl-3,5-dihydro-4H-pyrimido[5,4-b]indol-4-one] |
| 140 | 3720 |  | Cc1ccc2[nH]c3c(=O)n(CCC(=O)N(C)CCNc4cccc(C(F)(F)F)c4)cnc3c2c1 [Compound 91, N-methyl-3-(8-methyl-4-oxo-4,5-dihydro-3H-pyrimido[5,4-b]indol-3-yl)-N-(2-((3-(trifluoromethyl)phenyl)amino)ethyl)propanamide] |
| 148 | 2130 |  | O=C(CCCn1cnc2c(c1=O)CCCc1ccccc1-2)N1CCN(c2cccc(C(F)(F)F)c2)CC1 [Compound 228, 3-(4-oxo-4-(4-(3-(trifluoromethyl)phenyl)piperazin-1-yl)butyl)-3,5,6,7-tetrahydro-4H-benzo[6,7]cyclohepta[1,2-d]pyrimidin-4-one] |
| 172 | 1210 |  | Cc1ccc2[nH]c3c(=O)n(CCC(=O)N4CCN(c5cccc(C(F)(F)F)c5)CC4)cnc3c2c1 [Compound 61] |
| 224 | 9040 |  | C[C@H](OC(C)(C)C)[C@@H](NC(=O)OCC1c2ccccc2-c2ccccc21)C(=O)O [Compound 142] |
| 167 | 1370 |  | Cc1ccc(C)c(N2CCN(C(=O)CCn3cnc4c([nH]c5ccc(C)cc54)c3=O)CC2)c1 [Compound 34] |
| 128 |  |  | Cc1ccc2[nH]c3c(=O)n(CCC(=O)N4CCN(c5ccccc5C(F)(F)F)CC4)cnc3c2c1 [Compound 4, 8-methyl-3-(3-oxo-3-(4-(2-(trifluoromethyl)phenyl)piperazin-1-yl)propyl)-3,5-dihydro-4H-pyrimido[5,4-b]indol-4-one] |
| 121 |  |  | Cc1ccc2c(c1)[nH]c1c(=O)n(CCC(=O)N3CCN(c4c(Cl)cccc4Cl)CC3)cnc12 [Compound 20, 3-(3-(4-(2,6-dichlorophenyl)piperazin-1-yl)-3-oxopropyl)-7-methyl-3,5-dihydro-4H-pyrimido[5,4-b]indol-4-one] |
| 165 | 1450 |  | O=C1CCc2ccc(OCCCCCN3c4ccccc4Sc4ccc(C(F)(F)F)cc43)cc2N1 [Compound 206, 7-((5-(2-(trifluoromethyl)-10H-phenothiazin-10-yl)pentyl)oxy)-3,4-dihydroquinolin-2(1H)-one] |

| SMILES | Emax (read-out: Emax) [%] | EC50 [nM] | Emax [%] |
| --- | --- | --- | --- |
| Cc1ccc2[nH]c3c(=O)n(CCC(=O)NCCNc4ccc5ccccc5c4)cnc3c2c1 [Compound 132, 3-(8-methyl-4-oxo-4,5-dihydro-3H-pyrimido[5,4-b]indol-3-yl)-N-(2-(naphthalen-2-ylamino)ethyl)propanamide] | 163 |  |  |
| Cc1ccc2[nH]c3c(=O)n(CCC(=O)NCCNc4cccc(C(F)(F)F)c4)cnc3c2c1 [Compound 89, 3-(8-methyl-4-oxo-4,5-dihydro-3H-pyrimido[5,4-b]indol-3-yl)-N-(2-((3-(trifluoromethyl)phenyl)amino)ethyl)propanamide] | 132 |  |  |
| COc1ccc2[nH]c(=O)c3c(ccn3CCCN3CCN(c4cccc(C(F)(F)F)c4)CC3)c2c1 [Compound 210, 8-methoxy-3-(3-(4-(3-(trifluoromethyl)phenyl)piperazin-1-yl)propyl)-3,5-dihydro-4H-pyrrolo[2,3-c]quinolin-4-one] | 166 | 1800 |  |

Reference: patent publication US20250388584A1, “TPK AGONIST AND METHOD FOR TREATING NEURODEGENERATIVE DISEASES USING SAME” (SHANGHAI RAISING PHARMACEUTICAL CO., LTD., priority 2022, published 2025)
